For the experiment, the system named is glycogen synthase. As to the kind of experiment: Glycogen Synthase (GS) Assay, in vitro activation of glycogen synthase. Format: biochemical. The following applies: compound concentration needed to stimulate 200% of the enzyme activity; coupled pyruvate kinase/lactate dehydrogenase assay, absorbance at 340 nm, 37° C. The procedure:
Twelve μl per well of substrate solution containing glycogen (4.32 mg/ml), 21.6 mM UDP-glucose, 21.6 mM phospho(enol)pyruvate and 2.7 mM NADH in 30 mM glycylglycine, pH 7.3 buffer is added into a polystyrene 384-well assay plate (BD Biosciences). Compound solution (8 μl/well) at various concentrations (0-57 μM) in 30 mM glycylglycine, pH 7.3, 40 mM KCl, 20 mM MgCl2 plus 9.2% DMSO are added to the assay plate (columns 5-24). Enzyme solution (12 μl/well) containing glycogen synthase (16.88 μg/ml), pyruvate kinase (0.27 mg/ml), lactate dehydrogenase (0.27 mg/ml) in 50 mM Tris-HCl, pH 8.0, 27 mM DTT and bovine serum albumin (BSA, 0.2 mg/ml) is added to the assay plate (columns 3-24). As a blank control, enzyme solution without glycogen synthase is added into the top half wells of columns 1-2. To the bottom half wells of columns 1-2 are added a known activator, glucose 6-phosphate (18.9 mM) in addition to the enzyme solution. The reaction mixture is incubated at 37° C. The assay plate is then read for absorbance at 340 nm on a Tecan Ultra reader every 3 minutes up to a total of 30 minutes.
The enzyme activity (with or without compound) is calculated by the reaction rate and represented by the optical density change (ΔOD) per minute. Percent stimulation of glycogen synthase activity by a compound at various concentrations is calculated by the following formula: % stimulation=100*Rs/Rt,
where Rs is the reaction rate of the enzyme in the presence of compound and Rt is the reaction rate of the enzyme in the absence of compound.
SC2.0 is defined as the compound concentration that is needed to stimulate 200% of the enzyme activity.
Glycogen Synthase (GS) Assay
The following tests were carried out in order to determine the activity of the compounds of formula (I).
Twelve μl per well of substrate solution containing glycogen (4.32 mg/ml), 21.6 mM UDP-glucose, 21.6 mM phospho(enol)pyruvate and 2.7 mM NADH in 30 mM glycylglycine, pH 7.3 buffer was added into a polystyrene 384-well assay plate (BD Biosciences). Compound solution (8 μl/well) at various concentrations (0-57 μM) in 30 mM glycylglycine, pH 7.3, 40 mM KCl, 20 mM MgCl2 plus 9.2% DMSO were added to the assay plate (columns 5-24). Enzyme solution (12 μl/well) containing glycogen synthase (16.88 μg/ml), pyruvate kinase (0.27 mg/ml), lactate dehydrogenase (0.27 mg/ml) in 50 mM Tris-HCl, pH 8.0, 27 mM DTT and bovine serum albumin (BSA, 0.2 mg/ml) was added to the assay plate (columns 3-24). As a blank control, enzyme solution without glycogen synthase was added into the top half wells of columns 1-2. To the bottom half wells of columns 1-2 were added a known activator, glucose 6-phosphate (18.9 mM) in addition to the enzyme solution. The reaction mixture was incubated at 37° C. The assay plate was then read for absorbance at 340 nm on a Tecan Ultra reader every 3 minutes up to a total of 30 minutes.
The enzyme activity (with or without compound) was calculated by the reaction rate and represented by the optical density change (ΔOD) per minute. Percent stimulation of glycogen synthase activity by a compound at various concentrations was calculated by the following formula: % stimulation=100*Rs/Rt, […]
Compound `O=C(O)c1ccccc1COc1ccc(-c2ccccc2)cc1Cl` [Example 15, 2-(3-Chloro-biphenyl-4-yloxymethyl)-benzoic acid] displayed an SC2.0 of 10.3 µM. `O=C(O)c1csc(COc2ccc(-c3ccc(Cl)cc3)cc2)n1` [Example 26, 2-(4′-Chloro-biphenyl-4-yloxymethyl)-thiazole-4-carboxylic acid] gave an SC2.0 of 3.1 µM. The value for `O=C(O)[C@H]1CCCN1C(=O)c1ccc(COc2ccc(-c3ccccc3)cc2)o1` [1-[5-(Biphenyl-4-yloxymethyl)-furan-2-carbonyl]-L-pyrrolidine-2-carboxylic acid] was 1.4 µM.

`COc1ccc(-c2ccc(OCc3cccc(C(=O)O)c3)cc2)cc1` [Example 7, 3-(4′-Methoxy-biphenyl-4-yloxymethyl)-benzoic acid] had an SC2.0 of 9.6 µM. Then `O=C(O)c1cccc(COc2ccc(-c3ccc(Br)cc3)cc2)c1` [Example 4, 3-(4′-Bromo-biphenyl-4-yloxymethyl)-benzoic acid], with 3.8 µM; and `O=C(O)c1ccc(COc2ccc(-c3ccc(Cl)cc3)cc2)o1` [Example 12, 5-(4′-Chloro-biphenyl-4-yloxymethyl)-furan-2-carboxylic acid], with 0.8 µM; and `O=C(O)c1ccc(COc2ccc(-c3ccccc3)cc2)s1` [5-(Biphenyl-4-yloxymethyl)-thiophene-2-carboxylic acid], with 12.7 µM. Then `O=C(O)c1csc(COc2ccc(-c3ccccc3)cc2Cl)n1` [Example 22, 2-(3-Chloro-biphenyl-4-yloxymethyl)-thiazole-4-carboxylic acid], with 14.9 µM; and `O=C(NC1(C(=O)O)CCCC1)c1ccc(COc2ccc(-c3ccccc3)cc2)o1` [Example 34, 1-{[5-(Biphenyl-4-yloxymethyl)-furan-2-carbonyl]-amino}-cyclopentane carboxylic acid], with 16.3 µM. `O=C(O)c1ccc(COc2cccc(-c3ccccc3)c2)o1` [Example 9, 5-(Biphenyl-3-yloxymethyl)-furan-2-carboxylic acid] showed an SC2.0 of 14.9 µM.

Values taken from patent US7842825B2, “Biaryloxymethylarenecarboxylic acids as glycogen synthase activator” (Hoffmann-La Roche Inc., priority 2003, dated 2010).
